Measured values taken from patent US12384797B2, “Thioeno[3,2-b] pyridin-7-amine compounds for treating familial dysautonomia” (PTC THERAPEUTICS, INC., priority 2019, dated 2025).

Tested on: Elongator complex protein 1 (ELP1, also referred to as IKBKAP)
Assay: IKBKAP-HTRF assay (IKBKAP protein in lysates of FD patient-derived fibroblasts)
Format: cell-based, human
Conditions: 48 hours incubation, 7-point concentration curve
Procedure: The assay is used for the quantitative determination of Elongator complex protein 1 (ELP1, also referred to as IKBKAP) concentration in cell lysates using the HTRF® (Homogeneous Time-Resolved Fluorescence) technology. IKBKAP is detected in a sandwich HTRF assay by use of an anti-IKAP antibody labeled with a donor and an anti-IKAP antibody labeled with an acceptor.
Cells were thawed and incubated in DMEM-10% FBS for 72 hours. Cells were trypsinized, counted, and re-suspended to a concentration of 50,000 cells/mL in DMEM-10% FBS. A 199 μL aliquot of the cell suspensions were plated at 10,000 cells per well in a 96 well microtiter plate and incubated for 3 to 5 hours. […] Test compounds were serially diluted 3.16-fold in 100% DMSO to generate a 7-point concentration curve. A 1 μL aliquot of 200× compound solution was transferred to cell-containing wells, and cells were incubated for 48 hours in a cell culture incubator (37° C., 5% CO2, 100% relative humidity). Triplicate samples were set up for each compound concentration. After 48 hours, the supernatant was removed from the cells and 50 μL of the 1×LB4 lysis buffer, containing protease inhibitors, was added to the cells and incubated with shaking at room temperature for 1 hour. A 36 μL aliquot of this lysate was subsequently transferred to the 384-well plate containing 4 μL of the antibody solution (1:50 dilution of anti IKAP d2 and anti-IKAP K(9+8) in detection buffer). The 384-well plate was then centrifuged for 1 minute to bring the solutions to the bottom of the plate and incubated overnight at 4° C. Fluorescence for each well of the plate at 665 nm and 620 nm was measured was on the EnVision plate reader (Perkin Elmer). The ΔF for each sample is calculated by:
[formula] wherein Signal is the normalized fluorescence for each sample well and Blank is the average normalized average fluorescence for the Blank control wells.
The maximum fold increase (MFI) in IKBKAP protein abundance for compounds of Formula (I) or a form thereof relative to the vehicle control are provided in Table 1. MFI was calculated by dividing the ΔF value for each sample well by the sample ΔF for the vehicle control wells.
The EC2x for IKBKAP protein expression obtained from the 7-point concentration curve generated for each test compound according to the protocol in Biological Example 1 are also provided in Table 1. The term “EC2x for IKBKAP protein expression” is defined as the concentration of test compound that is effective in producing two times the amount of IKBKAP protein in a FD patient cell compared to the amount produced from the DMSO vehicle control.

Compound	EC2x for IKBKAP protein expression (concentration producing two times the amount of IKBKAP protein vs DMSO vehicle control)	MFI (maximum fold increase in IKBKAP protein abundance relative to the vehicle control)
Cc1c(C[C@H](N)CF)sc2c(NCc3ccco3)cc(Cl)nc12 [Compound 59, 2-[(2S)-2-amino-3-fluoropropyl]-5-chloro-N-[(furan-2-yl)methyl]-3-methylthieno[3,2-b]pyridin-7-amine]	*** (between >0.02 μM and ≤0.5 μM is indicated by three stars (***))	** (between >1.9 and ≤2.9 is indicated by two stars (**))
Cc1c(NC[C@@H](C)N)sc2c(NCc3cccs3)cc(Cl)nc12 [Compound 164, N^2-[(2R)-2-aminopropyl]-5-chloro-3-methyl-N^7-[(thiophen-2-yl)methyl]thieno[3,2-b]pyridine-2,7-diamine]	*** (between >0.02 μM and ≤0.5 μM is indicated by three stars (***))	*** (between >2.9 and ≤3.9 is indicated by three stars (***))
N[C@H](Cc1sc2c(NCc3cccs3)cc(Cl)nc2c1Br)CC(F)F [Compound 107, 2-[(2S)-2-amino-4,4-difluorobutyl]-3-bromo-5-chloro-N-[(thiophen-2-yl)methyl]thieno[3,2-b]pyridin-7-amine]	***** (≤0.005 μM is indicated by five stars (*****))	***** (>4.9 is indicated by five stars (*****))
C[C@H](N)Cc1sc2c(NCc3ccco3)cc(Cl)nc2c1C1CC1 [Compound 51, 2-[(2S)-2-aminopropyl]-5-chloro-3-cyclopropyl-N-[(furan-2-yl)methyl]thieno[3,2-b]pyridin-7-amine]	***** (≤0.005 μM is indicated by five stars (*****))	***** (>4.9 is indicated by five stars (*****))
N#Cc1cc(NCc2ccco2)c2scc(C#N)c2n1 [Compound 15, 7-{[(furan-2-yl)methyl]amino}thieno[3,2-b]pyridine-3,5-dicarbonitrile]	* (An EC2x>1 μM is indicated by one star (*))	* (An MFI≤1.9 is indicated by one star (*))
C[C@H](N)Cc1sc2c(NCc3nccs3)cc(Cl)nc2c1Cl [Compound 38, 2-[(2S)-2-aminopropyl]-3,5-dichloro-N-[(1,3-thiazol-2-yl)methyl]thieno[3,2-b]pyridin-7-amine]	***** (≤0.005 μM is indicated by five stars (*****))	***** (>4.9 is indicated by five stars (*****))
C=C[C@H](N)Cc1cc2nc(Cl)cc(NCc3ccco3)c2s1 [Compound 119, 2-[(2R)-2-aminobut-3-en-1-yl]-5-chloro-N-[(furan-2-yl)methyl]thieno[3,2-b]pyridin-7-amine]	**** (between >0.005 μM and ≤0.02 μM is indicated by four stars (****))	**** (between >3.9 and ≤4.9 is indicated by four stars (****))
OC[C@@H](Cc1sc2c(NCc3nccs3)cc(Cl)nc2c1Br)NC(F)(F)F [Compound 65, (2R)-3-(3-bromo-5-chloro-7-{[(1,3-thiazol-2-yl)methyl]amino}thieno[3,2-b]pyridin-2-yl)-2-[(trifluoromethyl)amino]propan-1-ol]	*** (between >0.02 μM and ≤0.5 μM is indicated by three stars (***))	***** (>4.9 is indicated by five stars (*****))
CC(O)c1cc2nc(Cl)cc(NCc3ccco3)c2s1 (stereo not drawn) [Compound 4, 1-(5-chloro-7-{[(furan-2-yl)methyl]amino}thieno[3,2-b]pyridin-2-yl)ethan-1-ol]	* (An EC2x>1 μM is indicated by one star (*))	** (between >1.9 and ≤2.9 is indicated by two stars (**))
CC[C@H](N)Cc1sc2c(NCc3ccco3)cc(Cl)nc2c1C [Compound 19, 2-[(2S)-2-aminobutyl]-5-chloro-N-[(furan-2-yl)methyl]-3-methylthieno[3,2-b]pyridin-7-amine]	***** (≤0.005 μM is indicated by five stars (*****))	***** (>4.9 is indicated by five stars (*****))
C[C@H](N)C(O)c1sc2c(NCc3nccs3)cc(Cl)nc2c1Br (stereo partly drawn) [Compound 159, (2S)-2-amino-1-(3-bromo-5-chloro-7-{[(1,3-thiazol-2-yl)methyl]amino}thieno[3,2-b]pyridin-2-yl)propan-1-ol]	*** (between >0.02 μM and ≤0.5 μM is indicated by three stars (***))	** (between >1.9 and ≤2.9 is indicated by two stars (**))
CN[C@@H](C)Cc1sc2c(NCc3ccco3)cc(Cl)nc2c1C [Compound 42, 5-chloro-N-[(furan-2-yl)methyl]-3-methyl-2-[(2S)-2-(methylamino)propyl]thieno[3,2-b]pyridin-7-amine]	**** (between >0.005 μM and ≤0.02 μM is indicated by four stars (****))	***** (>4.9 is indicated by five stars (*****))
Cc1c(C[C@@H](N)C(=O)Nc2cccc(Cl)c2)sc2c(NCc3ccco3)cc(Cl)nc12 [Compound 143, 3-(5-chloro-7-{[(furan-2-yl)methyl]amino}-3-methylthieno[3,2-b]pyridin-2-yl)-N-(3-chlorophenyl)-D-alaninamide]	*** (between >0.02 μM and ≤0.5 μM is indicated by three stars (***))	***** (>4.9 is indicated by five stars (*****))
2-[(2R)-2-amino-3-fluoropropyl]-5-chloro-3-cyclopropyl-N-[(thiophen-2-yl)methyl]thieno[3,2-b]pyridin-7-amine [Compound 77]	*** (between >0.02 μM and ≤0.5 μM is indicated by three stars (***))	**** (between >3.9 and ≤4.9 is indicated by four stars (****))
Cc1c([C@@H](C)[C@H](C)N)sc2c(NCc3ccco3)cc(Cl)nc12 [Compound 151, 2-[(2S,3S)-3-aminobutan-2-yl]-5-chloro-N-[(furan-2-yl)methyl]-3-methylthieno[3,2-b]pyridin-7-amine]	*** (between >0.02 μM and ≤0.5 μM is indicated by three stars (***))	** (between >1.9 and ≤2.9 is indicated by two stars (**))
Cc1c(C[C@@H](N)CF)sc2c(NCc3cccs3)cc(Cl)nc12 [Compound 91, 2-[(2R)-2-amino-3-fluoropropyl]-5-chloro-3-methyl-N-[(thiophen-2-yl)methyl]thieno[3,2-b]pyridin-7-amine]	***** (≤0.005 μM is indicated by five stars (*****))	***** (>4.9 is indicated by five stars (*****))
N[C@@H](CCO)Cc1sc2c(NCc3nccs3)cc(Cl)nc2c1Br [Compound 89, (3S)-3-amino-4-(3-bromo-5-chloro-7-{[(1,3-thiazol-2-yl)methyl]amino}thieno[3,2-b]pyridin-2-yl)butan-1-ol]	***** (≤0.005 μM is indicated by five stars (*****))	***** (>4.9 is indicated by five stars (*****))
Clc1cc(NCc2ccco2)c2sccc2n1 [Compound 1, 5-chloro-N-[(furan-2-yl)methyl]thieno[3,2-b]pyridin-7-amine]	* (An EC2x>1 μM is indicated by one star (*))	*** (between >2.9 and ≤3.9 is indicated by three stars (***))
